Source: article PMC6851181 (Scientific Reports, 2019)
Where two headings read alike, the source gives them in different places.

Experiments:
[1] = Mouse IF pharmacokinetic study: plasma IF by HPLC, alone or after GFJ or naringin pre-administration; format: in vivo, ICR male mice
Description: For the study, 7 groups with 12 animals each were intragastrically (ig) administered with 300 mg/kg of IF. Then, we obtained 1 mL of blood by cardiac puncture at 2.5, 5, 7.5, 10, 20, 30, and 60 min post-administration.
Blood samples were immediately centrifuged at 3500 rpm. Aliquots of 250 µL were stored at −70 °C until the quantification of IF plasmatic concentrations was carried out.
Besides in our research, 7 groups with 12 animals each were ig administered with naringin (250 mg/kg) to evaluate its influence on the concentration/time profiles of IF, a chemical that was ig administered 60 min later (300 mg/kg). Seven other groups were ig administered GFJ (20.8 µL/g) and 60 min later ig treated with 300 mg/kg of IF. In both assays, we obtained blood samples at 2.5, 5, 7.5, 10, 20, 30, and 60 min post-administration. With the indicated design we examined the influence of GFJ or naringin on the concentration/time profiles of IF.
For the blood treatment, after thawing, we added 250 μL of the internal standard (CF) to each sample, after which the plasma was deproteinized with methanol 1:1.5 (plasma-methanol), and centrifuged at 3500 rpm for 10 min. Subsequently, we transferred 450 μL of the supernatant to an Eppendorf tube containing 550 μL of phosphate buffer 0.01 N, pH 4.0. The solution was activated with 1 mL of methanol plus 1 mL of phosphate buffer 0.01 N, pH 4.0, and loaded to a Bond Elut-CH cartridge under reduced pressure. The cartridge was washed with 1 mL of acetonitrile plus phosphate buffer 0.01 N, pH 4.0 (10–90%) and it was eluted with 500 μL of acetonitrile plus phosphate buffer 0.025 N, pH 4.0 (40–60%). A volume of 20 μL were injected in the stabilized HPLC system.
The pharmacokinetic parameters of IF and their interaction with naringin or GFJ were calculated by non-compartmental assessment of data using the computer program WinNonlin (V4.0, Pharsight, Mountain View, CA, USA). The maximum plasma concentrations (Cmax) and their time of occurrence (Tmax) were both obtained directly from the measured data. The area under the plasma concentration-time curve, from time zero to the time of the last measurable concentration (AUC0-t) was calculated with the linear trapezoidal method. AUC0-∞ was calculated AUC0-t + Ct/λz, where Ct is the last measurable concentration and λz the constant rate of terminal elimination. The corresponding half-life elimination (t1/2) was then calculated as 0.693/λz. The results corresponding to Cmax were statistically analyzed with the ANOVA and the Student-Newman-Keuls tests. With respect to AUC0-t, Tmax, and t1/2 the analysis was made with the Kruskal-Wallis test.

[2] = Stability of IF in the plasma of mouse under various storage conditions (HPLC); format: in vitro ADME; conditions: n = 3
Description: The short-term stability was determined after the exposure of the spiked samples to room temperature for 24 h. The long-term stability was evaluated after storage of the standard spiked plasma samples at −70 °C for 30 days. The freeze/thaw cycle stability was assessed after two complete freeze/thaw cycles (−70 to 25 °C) on consecutive days. The analytes were considered to be stable in plasma when 85–115% of the initial concentrations were found.
Chromatography conditions for the study were as follows: the mobile phase consisted of acetonitrile, potassium phosphate buffer 0.025 M at pH 4.0, and triethylamine (12:88:0.025, v/v) with a final pH of 6.2. The flow-rate was 1.2 mL/min. The analytical column was operated at ambient temperature. The HPLC system consisted of a Beckman System Gold, 128 Solvent Module with ultra-violet detection at 200 nm. We used a 3.5 μm Xterra RP-8 (4.6 × 150 mm) column. Data were collected by the HPLC system and transferred to a Dell Pentium computer.

[3] = IF only, 300 mg/kg ig, mouse plasma, 300 mg/kg
[4] = male, ICR, mouse, plasma, po, 300 mg/kg, GFJ 20.8 µL/g ig 1 h before IF 300 mg/kg ig, mouse plasma
[5] = male, ICR, mouse, plasma, po, 300 mg/kg, IF only, 300 mg/kg ig, mouse plasma
[6] = male, ICR, mouse, plasma, po, 300 mg/kg, naringin 250 mg/kg ig 1 h before IF 300 mg/kg ig, mouse plasma

**Q.** Which “Change of half-life (t1/2) of IF with respect to IF alone” value ([1]; naringin 250 mg/kg ig 1 h before IF 300 mg/kg ig, mouse) does the source give for C[C@@H]1O[C@@H](O[C@H]2[C@H](Oc3cc(O)c4c(c3)O[C@H](c3ccc(O)cc3)CC4=O)O[C@H](CO)[C@@H](O)[C@@H]2O)[C@H](O)[C@H](O)[C@H]1O [naringin, 4′,5,5-trihdroxy-flavanone-7-rhamnoglucoside] here?
**A.** no change

**Q.** What about the “Difference of AUC0−∞ of IF with respect to IF alone” value ([1]; naringin 250 mg/kg or GFJ 20.8 µL/g ig 1 h before IF 300 mg/kg ig, mouse) of the same molecule?
**A.** no statistical difference

**Q.** Which results are given for O=P1(NCCCl)OCCCN1CCCl (stereo not drawn) [IF, ifosfamide]?
**A.** Cmax ([1]; GFJ 20.8 µL/g ig 1 h before IF 300 mg/kg ig, mouse plasma): 71.35 ± 3.57^a♣ μg/mL; AUC0−∞ [1, 3]: 2110.36 ± 114.98 µg·min/mL; Cmax [1, 3]: 58080 ± 5010 ng/mL; Tmax [1, 3]: 10.83 ± 1.28 min; t1/2 [1, 3]: 23.55 ± 1.86 min; AUC(0-inf) [1, 4]: 34200 ng·h/mL; half-life [1, 4]: 16.5 ± 1.43 min; Cmax ([1]; male, ICR, mouse, plasma, po, 300 mg/kg, GFJ 20.8 µL/g ig 1 h before IF 300 mg/kg ig, mouse plasma, read-out: Cmax): 71300 ng/mL; Tmax ([1]; male, ICR, mouse, plasma, po, 300 mg/kg, GFJ 20.8 µL/g ig 1 h before IF 300 mg/kg ig, mouse plasma, read-out: Tmax (converted)): 8.7 min; AUC(0-inf) [1, 5]: 35200 ng·h/mL; half-life [1, 5]: 23.5 min; Cmax ([1]; male, ICR, mouse, plasma, po, 300 mg/kg, IF only, 300 mg/kg ig, mouse plasma, read-out: Cmax): 58100 ng/mL; Tmax ([1]; male, ICR, mouse, plasma, po, 300 mg/kg, IF only, 300 mg/kg ig, mouse plasma, read-out: Tmax (converted)): 10.8 min; AUC(0-inf) [1, 6]: 37400 ng·h/mL; half-life [1, 6]: 26.8 ± 3.77 min; Cmax ([1]; male, ICR, mouse, plasma, po, 300 mg/kg, naringin 250 mg/kg ig 1 h before IF 300 mg/kg ig, mouse plasma, read-out: Cmax): 64100 ± 4370 ng/mL; Tmax ([1]; male, ICR, mouse, plasma, po, 300 mg/kg, naringin 250 mg/kg ig 1 h before IF 300 mg/kg ig, mouse plasma, read-out: Tmax (converted)): 5 min; Cmax ([1]; male, ICR, mouse, plasma, po, naringin 250 mg/kg ig 1 h before IF 300 mg/kg ig, mouse plasma, read-out: Cmax): 64100 ng/mL; Concentration found ([2]; freeze and thaw stability (−70 to 25 °C), two cycles, added 90 μg/mL): 81.34 ± 4.99 µg/mL; Concentration found ([2]; long-term (30 days, −70 °C), added 90 μg/mL): 108.34 ± 1.64 µg/mL; Concentration found ([2]; short-term (24 h, 25 °C), added 10 μg/mL): 12.31 ± 0.68 µg/mL; Concentration found ([2]; short-term (24 h, 25 °C), added 90 μg/mL): 100.11 ± 14.27 µg/mL
